ChEMBL document CHEMBL3352542, “Synthesis, biological evaluation and molecular modeling study of 2-(1,3,4-thiadiazolyl-thio and 4-methyl-thiazolyl-thio)-quinazolin-4-ones as a new class of DHFR inhibitors” (Bioorg Med Chem Lett, 2014)
Active and inactive are the calls of the source. The calls are words filed in the database; no cut-off is given here.

Columns and labels:
Bacillus subtilis [1] = assay: Antimicrobial activity against Bacillus subtilis assessed as inhibition zone at 200 ug/disk after 24 hrs by disc-diffusion method; assay type: functional; settings: read-out: IZ
Dihydrofolate reductase = biological target: T1, Dihydrofolate reductase (Bos taurus, UniProt P00376); assay: Inhibition of bovine liver DHFR
T1 sequence (P00376 whole entry): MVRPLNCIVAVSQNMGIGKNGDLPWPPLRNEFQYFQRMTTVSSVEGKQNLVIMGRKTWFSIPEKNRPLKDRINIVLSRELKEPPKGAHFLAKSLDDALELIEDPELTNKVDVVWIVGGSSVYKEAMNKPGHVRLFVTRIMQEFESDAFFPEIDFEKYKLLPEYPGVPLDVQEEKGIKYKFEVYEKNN

MDA-MB-231 = assay: Growth inhibition of human MDA-MB-231 cells at 10 uM after 48 hrs; assay type: functional
Escherichia coli [2] = assay: Antimicrobial activity against Escherichia coli assessed as inhibition zone at 200 ug/disk after 24 hrs by disc-diffusion method; assay type: functional; settings: read-out: IZ
[3] = (§1) Growth inhibition of human SF539 cells at 10 uM after 48 hrs; assay type: functional; settings: SF-539, 48 h, read-out: GI
[4] = (§2) Growth inhibition of human UACC62 cells at 10 uM after 48 hrs; assay type: functional; settings: UACC-62, 48 h, read-out: GI
[5] = (§3) Growth inhibition of human PC3 cells at 10 uM after 48 hrs; assay type: functional; settings: PC-3, 48 h, read-out: GI
Staphylococcus aureus [6] = assay: Antimicrobial activity against Staphylococcus aureus assessed as inhibition zone at 200 ug/disk after 24 hrs by disc-diffusion method; assay type: functional; settings: read-out: IZ
SR = assay: Growth inhibition of human SR cells at 10 uM after 48 hrs; assay type: functional
HL-60(TB) = assay: Growth inhibition of human HL-60(TB) cells at 10 uM after 48 hrs; assay type: functional
CAKI-1 = assay: Growth inhibition of human CAKI-1 cells at 10 uM after 48 hrs; assay type: functional
A498 = assay: Growth inhibition of human A498 cells at 10 uM after 48 hrs; assay type: functional
[7] = (§4) Growth inhibition of human HOP92 cells at 10 uM after 48 hrs; assay type: functional; settings: HOP-92, 48 h, read-out: GI
[8] = (§5) Growth inhibition of human UO31 cells at 10 uM after 48 hrs; assay type: functional; settings: UO-31, 48 h, read-out: GI
[9] = (§6) Growth inhibition of human HCT116 cells at 10 uM after 48 hrs; assay type: functional; settings: HCT-116, 48 h, read-out: GI
Candida albicans = assay: Antimicrobial activity against Candida albicans assessed as inhibition zone at 200 ug/disk after 24 hrs by disc-diffusion method; assay type: functional; settings: read-out: IZ
[10] = (§7) Growth inhibition of human RXF393 cells at 10 uM after 48 hrs; assay type: functional; settings: RXF 393, 48 h, read-out: GI
Pseudomonas aeruginosa = assay: Antimicrobial activity against Pseudomonas aeruginosa assessed as inhibition zone at 200 ug/disk after 24 hrs by disc-diffusion method; assay type: functional; settings: read-out: IZ
SK-MEL-28 = assay: Growth inhibition of human SK-MEL-28 cells at 10 uM after 48 hrs; assay type: functional, cell-based
T47D = assay: Growth inhibition of human T47D cells at 10 uM after 48 hrs; assay type: functional
MDA-MB-468 = assay: Growth inhibition of human MDA-MB-468 cells at 10 uM after 48 hrs; assay type: functional
SF-295 = assay: Growth inhibition of human SF295 cells at 10 uM after 48 hrs; assay type: functional
Malme-3M = assay: Growth inhibition of human MALME-3M cells at 10 uM after 48 hrs; assay type: functional
HCT-15 = assay: Growth inhibition of human HCT15 cells at 10 uM after 48 hrs; assay type: functional
Staphylococcus aureus [11] = assay: Antimicrobial activity against Staphylococcus aureus assessed as inhibition of visible growth after 24 hrs by disc-diffusion method; assay type: functional, organism-based
786-0 = assay: Growth inhibition of human 786-0 cells at 10 uM after 48 hrs; assay type: functional
Escherichia coli [12] = assay: Antimicrobial activity against Escherichia coli assessed as inhibition of visible growth after 24 hrs by disc-diffusion method; assay type: functional, organism-based
Bacillus subtilis [13] = assay: Antimicrobial activity against Bacillus subtilis assessed as inhibition of visible growth after 24 hrs by disc-diffusion method; assay type: functional, organism-based
SK-MEL-5 = assay: Growth inhibition of human SK-MEL-5 cells at 10 uM after 48 hrs; assay type: functional
SF-539 = assay: as §1; assay type: functional
SNB-19 = assay: Growth inhibition of human SNB19 cells at 10 uM after 48 hrs; assay type: functional
UACC-62 = assay: as §2; assay type: functional
PC-3 = assay: as §3; assay type: functional
UACC-257 = assay: Growth inhibition of human UACC257 cells at 10 uM after 48 hrs; assay type: functional
HOP-62 = assay: Growth inhibition of human HOP62 cells at 10 uM after 48 hrs; assay type: functional
U-251 = assay: Growth inhibition of human U251 cells at 10 uM after 48 hrs; assay type: functional
Hs-578T = assay: Growth inhibition of human Hs 578T cells at 10 uM after 48 hrs; assay type: functional
HT-29 = assay: Growth inhibition of human HT-29 cells at 10 uM after 48 hrs; assay type: functional
MOLT-4 = assay: Growth inhibition of human MOLT4 cells at 10 uM after 48 hrs; assay type: functional
CCRF-CEM = assay: Growth inhibition of human CCRF-CEM cells at 10 uM after 48 hrs; assay type: functional
KM12 = assay: Growth inhibition of human KM12 cells at 10 uM after 48 hrs; assay type: functional
NCI-H226 = assay: Growth inhibition of human NCI-H226 cells at 10 uM after 48 hrs; assay type: functional
HOP-92 = assay: as §4; assay type: functional
OVCAR-4 = assay: Growth inhibition of human OVCAR4 cells at 10 uM after 48 hrs; assay type: functional
UO-31 = assay: as §5; assay type: functional
NCI-H522 = assay: Growth inhibition of human NCI-H522 cells at 10 uM after 48 hrs; assay type: functional
HCT-116 = assay: as §6; assay type: functional
RPMI-8226 = assay: Growth inhibition of human RPMI8226 cells at 10 uM after 48 hrs; assay type: functional
MDA-MB-435 = assay: Growth inhibition of human MDA-MB-435 cells at 10 uM after 48 hrs; assay type: functional
A549 = assay: Growth inhibition of human A549 cells at 10 uM after 48 hrs; assay type: functional
MCF7 = assay: Growth inhibition of human MCF7 cells at 10 uM after 48 hrs; assay type: functional
RXF 393 = assay: as §7; assay type: functional
K562 = assay: Growth inhibition of human K562 cells at 10 uM after 48 hrs; assay type: functional

In the case of `Cc1ccc(-n2c(Sc3nnc(N)s3)nc3ccc(C)cc3c2=O)cc1`, the zone of inhibition at 200 µg/disc (Bacillus subtilis [1]) is reported as 8 mm, the IC50 (Dihydrofolate reductase) is reported as 8 µM and the inhibition of growth at 10 µM (MDA-MB-231; MDA-MB-231, 48 h, read-out: GI) is reported as 21.9%. For the same compound, the zone of inhibition at 200 µg/disc (Escherichia coli [2]) was 8 mm, the inhibition of growth at 10 µM [3] was 15.6% and the inhibition of growth at 10 µM [4] was 14.8%. For the same compound, the inhibition of growth at 10 µM [5] was 11.8%, the zone of inhibition at 200 µg/disc (Staphylococcus aureus [6]) was 8 mm and the inhibition of growth at 10 µM (SR; read-out: GI) was 32.7%. The inhibition of growth at 10 µM (HL-60(TB); HL-60, 48 h, read-out: GI) was 28.2%, the inhibition of growth at 10 µM (CAKI-1; CAKI-1, 48 h, read-out: GI) was 10.4% and the inhibition of growth at 10 µM (A498; A498, 48 h, read-out: GI) was 14.2%. The inhibition of growth at 10 µM [7] was 21.1%, the inhibition of growth at 10 µM [8] was 23.2% and the inhibition of growth at 10 µM [9] was 11.6%. For the same compound, the zone of inhibition at 200 µg/disc (Candida albicans) was 8 mm, the inhibition of growth at 10 µM [10] was 10.5% and the zone of inhibition at 200 µg/disc (Pseudomonas aeruginosa) was 8 mm.
For `Cc1ccc(-n2c(Sc3nnc(N)s3)nc3ccc(Cl)cc3c2=O)cc1`, the zone of inhibition at 200 µg/disc (Bacillus subtilis [1]) was 20 mm, the “growth inhibition (GI)” value (SK-MEL-28) was “inactive” and the IC50 (Dihydrofolate reductase) was 8 µM. For the same compound, the “growth inhibition (GI)” value (T47D) was “inactive”, the “growth inhibition (GI)” value (MDA-MB-468) was “inactive” and the “growth inhibition (GI)” value (SF-295) was “inactive”. For the same compound, the “growth inhibition (GI)” value (Malme-3M) was “inactive”, the “growth inhibition (GI)” value (MDA-MB-231) was “inactive” and the “growth inhibition (GI)” value (HCT-15) was “inactive”. For the same compound, the Activity (Staphylococcus aureus [11]) was “Active”, the “growth inhibition (GI)” value (786-0) was “inactive” and the zone of inhibition at 200 µg/disc (Escherichia coli [2]) was 18 mm. For the same compound, the Activity (Escherichia coli [12]) was “Active”, the Activity (Bacillus subtilis [13]) was “Active” and the “growth inhibition (GI)” value (SK-MEL-5) was “inactive”. The “growth inhibition (GI)” value (SF-539) was “inactive”, the “growth inhibition (GI)” value (SNB-19) was “inactive” and the “growth inhibition (GI)” value (UACC-62) was “inactive”. For the same compound, the “growth inhibition (GI)” value (PC-3) was “inactive”, the zone of inhibition at 200 µg/disc (Staphylococcus aureus [6]) was 18 mm and the “growth inhibition (GI)” value (UACC-257) was “inactive”. The “growth inhibition (GI)” value (SR) was “inactive”, the “growth inhibition (GI)” value (HOP-62) was “inactive” and the “growth inhibition (GI)” value (U-251) was “inactive”. The “growth inhibition (GI)” value (HL-60(TB)) was “inactive”, the “growth inhibition (GI)” value (Hs-578T) was “inactive” and the “growth inhibition (GI)” value (HT-29) was “inactive”. For the same compound, the “growth inhibition (GI)” value (MOLT-4) was “inactive”, the “growth inhibition (GI)” value (CCRF-CEM) was “inactive” and the “growth inhibition (GI)” value (CAKI-1) was “inactive”. For the same compound, the “growth inhibition (GI)” value (A498) was “inactive”, the “growth inhibition (GI)” value (KM12) was “inactive” and the “growth inhibition (GI)” value (NCI-H226) was “inactive”. For the same compound, the “growth inhibition (GI)” value (HOP-92) was “inactive”, the “growth inhibition (GI)” value (OVCAR-4) was “inactive” and the “growth inhibition (GI)” value (UO-31) was “inactive”. The “growth inhibition (GI)” value (NCI-H522) was “inactive”, the “growth inhibition (GI)” value (HCT-116) was “inactive” and the “growth inhibition (GI)” value (RPMI-8226) was “inactive”. For the same compound, the “growth inhibition (GI)” value (MDA-MB-435) was “inactive”, the zone of inhibition at 200 µg/disc (Candida albicans) was 10 mm and the “growth inhibition (GI)” value (A549) was “inactive”. The “growth inhibition (GI)” value (MCF7) was “inactive”, the “growth inhibition (GI)” value (RXF 393) was “inactive” and the zone of inhibition at 200 µg/disc (Pseudomonas aeruginosa) was 14 mm. For the same compound, the “growth inhibition (GI)” value (K562) was “inactive”.
